Source: patent publication US11053204B2, “Pyrimidinyloxy benzene derivatives as herbicides” (FMC Corporation, priority 2015, dated 2021)

How the values were obtained:
Type in all cases: in vivo
[1] = system: oilseed rape (Brassica napus); experiment: Test C preemergence, plant response rating; conditions: Preemergence
Summary of the method: (§1)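 Visual injury score, 0 = no effect, 100 = complete control, assigned against untreated controls after 13 to 15 d in the greenhouse. Compounds were applied in a surfactant-containing non-phytotoxic solvent mix, preemergence to seeded loam/sand or silt loam soil, or postemergence to 1- to 4-leaf plants (2 to 18 cm).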

[2] = system: foxtail, giant (giant foxtail, Setaria faberii); experiment: Test C preemergence, plant response rating; conditions: Preemergence
Summary of the method: as §1

corn (Zea mays) [3] = experiment: Test C preemergence, plant response rating; conditions: Preemergence
Summary of the method: as §1

[4] = system: blackgrass (Alopecurus myosuroides); experiment: Test C preemergence, plant response rating; conditions: Preemergence
Summary of the method: as §1

[5] = system: velvetleaf (Abutilon theophrasti); experiment: Test C preemergence, plant response rating; conditions: Preemergence
Summary of the method: as §1

[6] = system: ryegrass, Italian (Italian ryegrass, Lolium multiflorum); experiment: Test C preemergence, plant response rating; conditions: Preemergence
Summary of the method: as §1

[7] = system: crabgrass, large (large crabgrass, Digitaria sanguinalis); experiment: Test C preemergence, plant response rating; conditions: Preemergence
Summary of the method: as §1

[8] = system: waterhemp (common waterhemp, Amaranthus rudis); experiment: Test C preemergence, plant response rating; conditions: Preemergence
Summary of the method: as §1

[9] = system: nutsedge, yellow (yellow nutsedge, Cyperus esculentus); experiment: Test C preemergence, plant response rating; conditions: Preemergence
Summary of the method: as §1

[10] = system: wheat (winter wheat, Triticum aestivum); experiment: Test C preemergence, plant response rating; conditions: Preemergence
Summary of the method: as §1

soybean (Glycine max) [11] = experiment: Test C preemergence, plant response rating; conditions: Preemergence
Summary of the method: as §1

[12] = system: morningglory (Ipomoea coccinea); experiment: Test C preemergence, plant response rating; conditions: Preemergence
Summary of the method: as §1

[13] = system: lambsquarters (Chenopodium album); experiment: Test C preemergence, plant response rating; conditions: Preemergence
Summary of the method: as §1

kochia (Kochia scoparia) = experiment: Test C postemergence, plant response rating; conditions: for Kochia plant response rating: scale 0 to 100 (0 no effect, 100 complete control)
Summary of the method: as §1

[14] = system: oilseed rape (Brassica napus); experiment: Test C postemergence, plant response rating; conditions: for Oilseed Rape plant response rating: scale 0 to 100 (0 no effect, 100 complete control)
Summary of the method: as §1

[15] = system: foxtail, giant (giant foxtail, Setaria faberii); experiment: Test C postemergence, plant response rating; conditions: for Foxtail, Giant plant response rating: scale 0 to 100 (0 no effect, 100 complete control)
Summary of the method: as §1

corn (Zea mays) [16] = experiment: Test C postemergence, plant response rating; conditions: for Corn plant response rating: scale 0 to 100 (0 no effect, 100 complete control)
Summary of the method: as §1

[17] = system: crabgrass, large (large crabgrass, Digitaria sanguinalis); experiment: Test C postemergence, plant response rating; conditions: for Crabgrass, Large plant response rating: scale 0 to 100 (0 no effect, 100 complete control)
Summary of the method: as §1

[18] = system: galium (catchweed bedstraw, Galium aparine); experiment: Test C postemergence, plant response rating; conditions: for Galium plant response rating: scale 0 to 100 (0 no effect, 100 complete control)
Summary of the method: as §1

[19] = system: waterhemp (common waterhemp, Amaranthus rudis); experiment: Test C postemergence, plant response rating; conditions: for Waterhemp plant response rating: scale 0 to 100 (0 no effect, 100 complete control)
Summary of the method: as §1

soybean (Glycine max) [20] = experiment: Test C postemergence, plant response rating; conditions: for Soybean plant response rating: scale 0 to 100 (0 no effect, 100 complete control)
Summary of the method: as §1

O=C(CCCC(F)(F)F)c1c(Br)cccc1Oc1ncc(Cl)cn1 [Compound 77]
Plant response rating, Oilseed Rape ([1]; 125 g ai/ha, scale of 0 to 100): 100 | Plant response rating, Oilseed Rape ([1]; 16 g ai/ha, scale 0 to 100): 0 | Plant response rating, Oilseed Rape ([1]; 31 g ai/ha, scale 0 to 100): 55 | Plant response rating, Oilseed Rape ([1]; 62 g ai/ha, scale 0 to 100): 100 | Plant response rating, Foxtail, Giant ([2]; 62 g ai/ha, scale of 0 to 100): 100 | Plant response rating, Foxtail, Giant ([2]; 125 g ai/ha, scale of 0 to 100): 100 | Plant response rating, Foxtail, Giant ([2]; 16 g ai/ha, scale 0 to 100): 95 | Plant response rating, Foxtail, Giant ([2]; 31 g ai/ha, scale 0 to 100): 100 | Plant response rating, Corn (corn (Zea mays) [3]; 62 g ai/ha, scale of 0 to 100): 20 | Plant response rating, Corn (corn (Zea mays) [3]; 125 g ai/ha, scale of 0 to 100): 35 | Plant response rating, Corn (corn (Zea mays) [3]; 16 g ai/ha, scale 0 to 100): 0 | Plant response rating, Corn (corn (Zea mays) [3]; 31 g ai/ha, scale 0 to 100): 15 | Plant response rating, Blackgrass ([4]; 62 g ai/ha, scale of 0 to 100): 90 | Plant response rating, Blackgrass ([4]; 125 g ai/ha, scale of 0 to 100): 100 | Plant response rating, Blackgrass ([4]; 16 g ai/ha, scale 0 to 100): 5 | Plant response rating, Blackgrass ([4]; 31 g ai/ha, scale 0 to 100): 15 | Plant response rating, Velvetleaf ([5]; 125 g ai/ha, scale of 0 to 100): 100 | Plant response rating, Velvetleaf ([5]; 16 g ai/ha, scale 0 to 100): 10 | Plant response rating, Velvetleaf ([5]; 31 g ai/ha, scale 0 to 100): 30 | Plant response rating, Velvetleaf ([5]; 62 g ai/ha, scale 0 to 100): 70 | Plant response rating, Ryegrass, Italian ([6]; 125 g ai/ha, scale of 0 to 100): 90 | Plant response rating, Ryegrass, Italian ([6]; 16 g ai/ha, scale 0 to 100): 0 | Plant response rating, Ryegrass, Italian ([6]; 31 g ai/ha, scale 0 to 100): 30 | Plant response rating, Ryegrass, Italian ([6]; 62 g ai/ha, scale 0 to 100): 35 | Plant response rating, Crabgrass, Large ([7]; 62 g ai/ha, scale of 0 to 100): 100 | Plant response rating, Crabgrass, Large ([7]; 125 g ai/ha, scale of 0 to 100): 100 | Plant response rating, Crabgrass, Large ([7]; 16 g ai/ha, scale 0 to 100): 98 | Plant response rating, Crabgrass, Large ([7]; 31 g ai/ha, scale 0 to 100): 100 | Plant response rating, Waterhemp ([8]; 125 g ai/ha, scale of 0 to 100): 100 | Plant response rating, Waterhemp ([8]; 16 g ai/ha, scale 0 to 100): 95 | Plant response rating, Waterhemp ([8]; 31 g ai/ha, scale 0 to 100): 100 | Plant response rating, Waterhemp ([8]; 62 g ai/ha, scale 0 to 100): 100 | Plant response rating, Nutsedge, Yellow ([9]; 125 g ai/ha, scale of 0 to 100): 30 | Plant response rating, Nutsedge, Yellow ([9]; 16 g ai/ha, scale 0 to 100): 0 | Plant response rating, Nutsedge, Yellow ([9]; 31 g ai/ha, scale 0 to 100): 0 | Plant response rating, Nutsedge, Yellow ([9]; 62 g ai/ha, scale 0 to 100): 0 | Plant response rating, Wheat ([10]; 125 g ai/ha, scale of 0 to 100): 0 | Plant response rating, Wheat ([10]; 16 g ai/ha, scale 0 to 100): 0 | Plant response rating, Wheat ([10]; 31 g ai/ha, scale 0 to 100): 0 | Plant response rating, Wheat ([10]; 62 g ai/ha, scale 0 to 100): 0 | Plant response rating, Soybean (soybean (Glycine max) [11]; 125 g ai/ha, scale of 0 to 100): 25 | Plant response rating, Soybean (soybean (Glycine max) [11]; 16 g ai/ha, scale 0 to 100): 5 | Plant response rating, Soybean (soybean (Glycine max) [11]; 31 g ai/ha, scale 0 to 100): 5 | Plant response rating, Soybean (soybean (Glycine max) [11]; 62 g ai/ha, scale 0 to 100): 15 | Plant response rating, Morningglory ([12]; 125 g ai/ha, scale of 0 to 100): 65 | Plant response rating, Morningglory ([12]; 16 g ai/ha, scale 0 to 100): 10 | Plant response rating, Morningglory ([12]; 31 g ai/ha, scale 0 to 100): 20 | Plant response rating, Morningglory ([12]; 62 g ai/ha, scale 0 to 100): 35 | Plant response rating, Lambsquarters ([13]; 125 g ai/ha, scale of 0 to 100): 98 | Plant response rating, Lambsquarters ([13]; 16 g ai/ha, scale 0 to 100): 50 | Plant response rating, Lambsquarters ([13]; 31 g ai/ha, scale 0 to 100): 60 | Plant response rating, Lambsquarters ([13]; 62 g ai/ha, scale 0 to 100): 100 | Plant response rating, Kochia (kochia (Kochia scoparia); 16 g ai/ha, scale of 0 to 100): 95 | Plant response rating, Kochia (kochia (Kochia scoparia); 31 g ai/ha, scale 0 to 100): 100 | Kochia plant response rating (kochia (Kochia scoparia); 62 g ai/ha): 100 | Kochia plant response rating (kochia (Kochia scoparia); 125 g ai/ha): 100 | Plant response rating, Oilseed Rape ([14]; 16 g ai/ha, scale of 0 to 100): 10 | Plant response rating, Oilseed Rape ([14]; 31 g ai/ha, scale 0 to 100): 70 | Oilseed Rape plant response rating ([14]; 62 g ai/ha): 70 | Oilseed Rape plant response rating ([14]; 125 g ai/ha): 85 | Plant response rating, Foxtail, Giant ([15]; 16 g ai/ha, scale of 0 to 100): 10 | Plant response rating, Foxtail, Giant ([15]; 31 g ai/ha, scale 0 to 100): 20 | Foxtail, Giant plant response rating ([15]; 62 g ai/ha): 25 | Foxtail, Giant plant response rating ([15]; 125 g ai/ha): 70 | Plant response rating, Corn (corn (Zea mays) [16]; 16 g ai/ha, scale of 0 to 100): 15 | Plant response rating, Corn (corn (Zea mays) [16]; 31 g ai/ha, scale 0 to 100): 15 | Corn plant response rating (corn (Zea mays) [16]; 62 g ai/ha): 20 | Corn plant response rating (corn (Zea mays) [16]; 125 g ai/ha): 25 | Plant response rating, Crabgrass, Large ([17]; 16 g ai/ha, scale of 0 to 100): 10 | Plant response rating, Crabgrass, Large ([17]; 31 g ai/ha, scale 0 to 100): 25 | Crabgrass, Large plant response rating ([17]; 62 g ai/ha): 30 | Crabgrass, Large plant response rating ([17]; 125 g ai/ha): 30 | Plant response rating, Galium ([18]; 16 g ai/ha, scale of 0 to 100): 75 | Plant response rating, Galium ([18]; 31 g ai/ha, scale 0 to 100): 98 | Galium plant response rating ([18]; 62 g ai/ha): 95 | Galium plant response rating ([18]; 125 g ai/ha): 98 | Plant response rating, Waterhemp ([19]; 16 g ai/ha, scale of 0 to 100): 95 | Plant response rating, Waterhemp ([19]; 31 g ai/ha, scale 0 to 100): 98 | Waterhemp plant response rating ([19]; 62 g ai/ha): 100 | Waterhemp plant response rating ([19]; 125 g ai/ha): 100 | Plant response rating, Soybean (soybean (Glycine max) [20]; 16 g ai/ha, scale of 0 to 100): 25 | Plant response rating, Soybean (soybean (Glycine max) [20]; 31 g ai/ha, scale 0 to 100): 50 | Soybean plant response rating (soybean (Glycine max) [20]; 62 g ai/ha): 70 | Soybean plant response rating (soybean (Glycine max) [20]; 125 g ai/ha): 65
